How the values were obtained:
[1] = tested on: hypertriglyceridemia and hypercholesterolemia-induced animals; test: HDL cholesterol concentrations in blood of hypertriglyceridemia and hypercholesterolemia-induced animals (Example 2); type: in vivo, New Zealand White rabbits; settings: 4 weeks oral once per day, Compound of Formula 1 20 mg/kg/day and/or olmesartan medoxomil 3 mg/kg/day; for average HDL cholesterol concentrations, 4 weeks: n=4-7; for Percent increase of HDL cholesterol level (%): in comparison with the G2 group
From the text: (§1) Male New Zealand White rabbits were used as a test animal. All animals, except for the G1 group animals (negative control group), were fed with an irradiation-sterilized hypertriglyceridemia and hypercholesterolemia diet, i.e., DYET #621082 (Purina #5321 chow with 0.5% cholesterol, 14% coconut oil & 2% Maltose Dextrin, Dyets, Inc., Bethlehem, Pa. 18017), which was purchased from Saeronbio Inc. In order to induce hypertriglyceridemia and hypercholesterolemia, the animals were supplied with the diet for more than 4 weeks. After collecting the blood samples from the animals, serum biochemical analyses were performed thereon. Animals showing significant changes in total cholesterol levels and triglyceride levels were selected, in comparison with the non-treated control group. The selected animals were divided into 4 groups on the basis of the total cholesterol levels and triglyceride levels, thereby all the groups having substantially equal average values in the total cholesterol levels and triglyceride levels. The test materials were dissolved in saline containing 0.5% carboxymethylcellulose sodium and 1% Tween 80 and then administered directly into the stomach using an oral syringe adapted with a latex catheter, once per day for 4 weeks. The test groups are as in the following Table 3.
The blood samples were collected through the jugular vein, from the animals at the day initiating the administration of the test material(s) (i.e., at the time of group-dividing, 0 week), and from the animals (which were fasted for 12 to 16 hours before collecting the blood) at 4 weeks after initiating the administration of the test material(s) (n=4-7).

[2] = tested on: hypertriglyceridemia and hypercholesterolemia-induced animals; test: Triglyceride concentrations in hypertriglyceridemia and hypercholesterolemia-induced animals (Example 2); type: in vivo, New Zealand White rabbits; settings: 4 weeks oral once per day, Compound of Formula 1 20 mg/kg/day and/or olmesartan medoxomil 3 mg/kg/day
From the text: as §1, with “3. […]” for “3.”

## CCCc1nc(C(C)(C)O)c(C(=O)OCc2oc(=O)oc2C)n1Cc1ccc(-c2ccccc2-c2nnn[nH]2)cc1 [Olmesartan medoxomil]
[1]
  average HDL cholesterol concentrations, 4 weeks: 125.3 mg/dL
  Percent increase of HDL cholesterol level (%): 2.6%
[2]; 0.5% cholesterol, 14% coconut oil diet, n=4-7
  average triglyceride concentrations, 4 weeks: 217.4 mg/dL
[2]; in comparison with the G2 group
  Percent inhibition of triglyceride in the blood (%): 33.4%

## COc1cc(F)c(C(C)C)cc1-c1ccc(C(F)(F)F)cc1CN1C(=O)O[C@H](c2cc(C(F)(F)F)cc(C(F)(F)F)c2)[C@@H]1C [Compound of Formula 1, (4S,5R)-5-[3,5-bis(trifluoromethyl)phenyl]-3-({2-[4-fluoro-2-methoxy-5-(propan-2-yl)phenyl]-5-(trifluoromethyl)phenyl}methyl)-4-methyl-1,3-oxazolidin-2-one]
[1]
  average HDL cholesterol concentrations, 4 weeks: 168.5 mg/dL
  Percent increase of HDL cholesterol level (%): 37.9%

Reference: patent US9724336B2, “Pharmaceutical composition for preventing or treating hyperlipidemia” (priority 2011, dated 2017)
